Laboratory results reported in patent US10688099B2, “Methods for modulating the amount of RNA transcripts” (PTC Therapeutics, Inc., priority 2013, dated 2020).

Tested on: RNA isoforms in PNN 1-46 SMA type I patient-derived fibroblasts
Assay: RNA Abundance Modulation (RNA isoform abundance, iFPM, HiSeq RNA sequencing)
Format: cell-based, human
Conditions: 3 μM
Experimental: Cells from a cell line of interest are cultured in conditions sufficient to yield the number of cells capable of generating enough RNA for subsequent sequencing steps. Cells from the tested cell line are contacted with a compound described herein.
To culture said cells, they are seeded, at appropriate concentrations in a volume of media in a cell culture container and incubated for 4, 5, 6, 7, 8, 9, 10, or more hours. A concentrated solution of compound in a vehicle (e.g., DMSO) is then added in sufficient volume to result in the intended final concentration of the compound, for example 100 nM, 500 nM, 1 μM, 5 μM, 10 μM, 15 μM, 20 μM, or more. The cells may also be treated with vehicle alone, as a control. A number of replicates of each concentration or control may be made (e.g., 2 replicates). The cells are then incubated at a constant temperature appropriate for cell culture of the particular cell line (e.g., 37° C.) for 6, 12, 18, 24, 48, or more hours. After incubation, the growth medium is removed and the cells are washed with the appropriate buffer (e.g., PBS). Cells are then removed from adherence to the cell culture container by treatment with a solution containing trypsin, and the trypsin subsequently quenched with the appropriate volume of buffer (e.g., DMEM-FBS). The cells are then pelleted with gentle centrifugation (e.g., ≤90×g centrifugal force) and resuspended in a buffer to lyse the cells for extraction of RNA. The cell lysates may then be frozen (e.g., at −80° C.) or, alternately, may immediately be used in a procedure to purify the RNA (e.g. by use of the RNEASY PLUS® minikit). The RNA from cell lysates is eluted in the appropriate volume of buffer (e.g., RNEASE-FREE H2O®). The resulting purified RNA may then be sequenced (e.g., using RNASeq) or analyzed using a human exon array (e.g., by GENECHIP® human exon array) to determine changes in the RNA levels in those cells treated with compound compared to those cells treated only with DMSO. The purified RNA may also be quantified by other methods known in the art.
Using the RNA data obtained from sequencing, exon array, or other methods, a statistical analysis can reveal changes in the RNA levels of compound-treated compared with control. For example, t-test p-values may be calculated for the data obtained through sequencing and exon array methods in order to compare compound-treated cells to those treated with the DMSO control. […] Analysis of the sequencing and exon array data may then also yield predictions about the cause of the aberrant amount of an RNA transcript in the cells (e.g., perturbation of RNA splicing, RNA transcription, or RNA stability). These predictions may be further confirmed by methods known in the art. For example, RT-PCR and RT-qPCR may be used to confirm the change in amount of RNA transcripts for one or more particular transcripts of interest.
Following the methods described above in Example 1, PNN 1-46 SMA type I patient-derived fibroblasts were treated with 300 nM or 3 μM Compounds 774 and 808 in 0.5% DMSO.
700,000 cells were seeded in 10 mL of medium (DMEM plus 10% FBS) in a T-75 flask. Cells were allowed to attach for at least 4 hrs, after which 50 μL of a 200× compound solution (100% DMSO) was added to each well, and the plate was incubated at 37° C. for 24 hrs.
At the end of the incubation period, the supernatant was removed and the cells where washed with PBS. TrypLE (Invitrogen) express solution was added (e.g. 1.5 mL per one T75 flask). The flasks were incubated for 3 to 5 min at 37° C. The trypsin was then quenched, e.g., by adding 10 mL DMEM-FBS.
Next, the cells were pelleted using gentle centrifugation without exceeding 90×g centrifugal force. The supernatant was removed and the cell pellet was re-suspended in 600 μL RLT buffer (the RLT buffer was supplemented with beta-mercaptoethanol according to the RNeasy protocol manual) by pipetting up and down until the pellet was completely dissolved […]

For `CCc1nc(C)cn2nc(-c3cc(=O)n4cc(C5CCN(C)CC5)cc(C)c4n3)cc12` [Compound 774], the “L2FC (x + 1)” value (TIMP2 AK294290) was −6.520, the “L2abs (Cpd-DMSO)” value (TIMP2 AK294290) was 6.50 and the “abs (Cpd-DMSO)” value (TIMP2 AK294290) was 91 iFPM. The “amp FC (x + 1)” value (TIMP2 AK294290) was 91.79, the “ave Cpd” value (TIMP2 AK294290) was 0 iFPM and the “FC (x + 1)” value (TIMP2 BC039613) was 0.9284. For the same compound, the “L2FC (x + 1)” value (TIMP2 BC039613) was −0.107, the “L2abs (Cpd-DMSO)” value (TIMP2 BC039613) was 11.17 and the “abs (Cpd-DMSO)” value (TIMP2 BC039613) was 2306 iFPM. The “amp FC (x + 1)” value (TIMP2 BC039613) was 1.08, the “ave Cpd” value (TIMP2 BC039613) was 29887 iFPM and the “FC (x + 1)” value (TIMP2 NM_003255) was 0.9585. The “L2FC (x + 1)” value (TIMP2 NM_003255) was −0.061, the “L2abs (Cpd-DMSO)” value (TIMP2 NM_003255) was 9.77 and the “abs (Cpd-DMSO)” value (TIMP2 NM_003255) was 876 iFPM. The “amp FC (x + 1)” value (TIMP2 NM_003255) was 1.04, the “ave Cpd” value (TIMP2 NM_003255) was 20235 iFPM and the “FC (x + 1)” value (TLK1 AK091975) was 0.7110. For the same compound, the “L2FC (x + 1)” value (TLK1 AK091975) was −0.492, the “L2abs (Cpd-DMSO)” value (TLK1 AK091975) was 6.56 and the “abs (Cpd-DMSO)” value (TLK1 AK091975) was 95 iFPM. For the same compound, the “amp FC (x + 1)” value (TLK1 AK091975) was 1.41, the “ave Cpd” value (TLK1 AK091975) was 232 iFPM and the “FC (x + 1)” value (TLK1 BX537631) was 1.2332. The “L2FC (x + 1)” value (TLK1 BX537631) was 0.302, the “L2abs (Cpd-DMSO)” value (TLK1 BX537631) was 0.14 and the “abs (Cpd-DMSO)” value (TLK1 BX537631) was 1 iFPM. The “amp FC (x + 1)” value (TLK1 BX537631) was 1.23, the “ave Cpd” value (TLK1 BX537631) was 5 iFPM and the “FC (x + 1)” value (TLK1 E09283) was 1.1041. For the same compound, the “L2FC (x + 1)” value (TLK1 E09283) was 0.143, the “L2abs (Cpd-DMSO)” value (TLK1 E09283) was 1.54 and the “abs (Cpd-DMSO)” value (TLK1 E09283) was 3 iFPM. For the same compound, the “amp FC (x + 1)” value (TLK1 E09283) was 1.10, the “ave Cpd” value (TLK1 E09283) was 30 iFPM and the “FC (x + 1)” value (TLK1 NM_012290) was 1.4535. For the same compound, the “L2FC (x + 1)” value (TLK1 NM_012290) was 0.540, the “L2abs (Cpd-DMSO)” value (TLK1 NM_012290) was 8.52 and the “abs (Cpd-DMSO)” value (TLK1 NM_012290) was 367 iFPM. The “amp FC (x + 1)” value (TLK1 NM_012290) was 1.45, the “ave Cpd” value (TLK1 NM_012290) was 1174 iFPM and the “FC (x + 1)” value (TLK1 NM_001136554) was 0.3744. The “L2FC (x + 1)” value (TLK1 NM_001136554) was −1.417, the “L2abs (Cpd-DMSO)” value (TLK1 NM_001136554) was 8.77 and the “abs (Cpd-DMSO)” value (TLK1 NM_001136554) was 437 iFPM. The “amp FC (x + 1)” value (TLK1 NM_001136554) was 2.67, the “ave Cpd” value (TLK1 NM_001136554) was 260 iFPM and the “FC (x + 1)” value (TLK1 NM_001136555) was 4.0350. For the same compound, the “L2FC (x + 1)” value (TLK1 NM_001136555) was 2.013, the “L2abs (Cpd-DMSO)” value (TLK1 NM_001136555) was 6.40 and the “abs (Cpd-DMSO)” value (TLK1 NM_001136555) was 84 iFPM. For the same compound, the “amp FC (x + 1)” value (TLK1 NM_001136555) was 4.04, the “ave Cpd” value (TLK1 NM_001136555) was 111 iFPM and the “FC (x + 1)” value (TMEM154 NM_152680) was 2.2609. The “L2FC (x + 1)” value (TMEM154 NM_152680) was 1.177, the “L2abs (Cpd-DMSO)” value (TMEM154 NM_152680) was 8.26 and the “abs (Cpd-DMSO)” value (TMEM154 NM_152680) was 306 iFPM. The “amp FC (x + 1)” value (TMEM154 NM_152680) was 2.26, the “ave Cpd” value (TMEM154 NM_152680) was 548 iFPM and the “FC (x + 1)” value (TNS3 NM_022748) was 0.1472. The “L2FC (x + 1)” value (TNS3 NM_022748) was −2.764, the “L2abs (Cpd-DMSO)” value (TNS3 NM_022748) was 9.92 and the “abs (Cpd-DMSO)” value (TNS3 NM_022748) was 971 iFPM. For the same compound, the “amp FC (x + 1)” value (TNS3 NM_022748) was 6.79, the “ave Cpd” value (TNS3 NM_022748) was 167 iFPM and the “FC (x + 1)” value (TOMM5 CCDS47968) was 0.9090. The “L2FC (x + 1)” value (TOMM5 CCDS47968) was −0.138, the “L2abs (Cpd-DMSO)” value (TOMM5 CCDS47968) was −2.28 and the “abs (Cpd-DMSO)” value (TOMM5 CCDS47968) was 0 iFPM. For the same compound, the “amp FC (x + 1)” value (TOMM5 CCDS47968) was 1.10, the “ave Cpd” value (TOMM5 CCDS47968) was 1 iFPM and the “FC (x + 1)” value (TOMM5 CR627326) was 0.4244. The “L2FC (x + 1)” value (TOMM5 CR627326) was −1.236, the “L2abs (Cpd-DMSO)” value (TOMM5 CR627326) was 2.64 and the “abs (Cpd-DMSO)” value (TOMM5 CR627326) was 6 iFPM.
